Data taken from patent US6069128A, “Transiently membrane-permeable derivatives converted intracellularly into active peptides” (Universite Laval, priority 1998, dated 2000).
Where no end group is shown, it is not given here.

Tested on: IL-8-induced leukocyte migration
Assay: IL-8-induced leukocyte migration into the mouse air pouch
Format: in vivo
Conditions: BALBc mice; 100 μg peptide intravenously in the tail one hour before subdermal IL-8 (1 μg); leukocytes collected two and a half hours after IL-8
Method: In the second series of experiments, inhibition of leukocyte migration in BALBc mice was chosen as an in vivo assay as a first step towards the use of the modified peptides in humans. 100 ug of the DRYLAIVHAT/AM peptide, diluted in cyclodextrane or polythelene glycol, was injected intravenously in the tails of BALBc mice one hour prior to the subdermal injection of IL-8. In the presence of the modified peptide, leukocyte migration was inhibited when compared to the migration observed in untreated animals (FIG. 4).
In FIG. 4, the peak increase in leukocyte migration induced by IL-8 is shown. The peptides (100 μg) (native or transformed) were injected intravenously in the tails of the BALBC mice one hour prior to IL-8 injection. The basal cell number was 0.25×10^6 cells and the increases represent the differences between the basal and the peak levels of the leukocytes collected two and a half hours after IL-8 stimulation. The data represent the mean ±SEM of the number of experiments indicated in parenthesis.

DRYLAIVHAT/AM: acetoxymethyl ester (AM) membrane-permeable derivative of the peptide from the second intracellular loop of the interleukin 8 type A receptor (also: acetoxymethyl ester (AM) derivative)
inhibition of leukocyte migration induced by IL-8: inhibited
